Experimental data: ChEMBL document CHEMBL5465560, “Selectivity Literature for EUbOPEN Chemogenomic Library” (2024)

How the values were obtained:
[1] = target: Cyclin-dependent kinase 13 (Homo sapiens, UniProt Q14004); assay: Selectivity interaction (KinomeScan (DiscoverX)) EUB0000595a CDK13; settings: at 10 µM
[2] = target: T1, Inhibitor of nuclear factor kappa-B kinase subunit epsilon (Homo sapiens) (UniProt Q14164); assay: Selectivity interaction (KinomeScan (DiscoverX)) EUB0000607a IKBKE; settings: at 10 µM
T1 sequence (whole entry): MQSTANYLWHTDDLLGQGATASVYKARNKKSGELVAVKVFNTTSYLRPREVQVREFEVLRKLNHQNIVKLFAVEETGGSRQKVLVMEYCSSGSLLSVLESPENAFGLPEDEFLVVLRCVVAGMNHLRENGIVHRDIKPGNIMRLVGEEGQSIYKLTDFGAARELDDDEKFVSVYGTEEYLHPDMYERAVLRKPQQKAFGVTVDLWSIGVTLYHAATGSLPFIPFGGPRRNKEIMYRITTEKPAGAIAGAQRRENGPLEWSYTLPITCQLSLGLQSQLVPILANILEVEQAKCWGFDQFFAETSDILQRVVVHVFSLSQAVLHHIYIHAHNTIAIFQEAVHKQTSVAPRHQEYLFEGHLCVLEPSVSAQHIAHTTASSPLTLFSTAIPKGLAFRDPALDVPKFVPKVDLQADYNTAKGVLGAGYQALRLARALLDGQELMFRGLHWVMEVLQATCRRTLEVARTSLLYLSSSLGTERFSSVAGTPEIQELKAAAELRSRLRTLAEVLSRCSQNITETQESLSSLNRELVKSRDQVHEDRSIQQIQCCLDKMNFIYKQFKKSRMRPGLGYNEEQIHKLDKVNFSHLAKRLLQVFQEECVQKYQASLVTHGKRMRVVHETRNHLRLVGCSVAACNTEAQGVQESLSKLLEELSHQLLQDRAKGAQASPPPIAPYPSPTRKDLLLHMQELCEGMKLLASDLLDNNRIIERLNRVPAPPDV

[3] = target: T2, Mitogen-activated protein kinase kinase kinase 3 (Homo sapiens) (UniProt Q99759); assay: Selectivity interaction (Kinase panel (Invitrogen)) EUB0000639a MAP3K3; settings: at 200 nM
T2 sequence (whole entry): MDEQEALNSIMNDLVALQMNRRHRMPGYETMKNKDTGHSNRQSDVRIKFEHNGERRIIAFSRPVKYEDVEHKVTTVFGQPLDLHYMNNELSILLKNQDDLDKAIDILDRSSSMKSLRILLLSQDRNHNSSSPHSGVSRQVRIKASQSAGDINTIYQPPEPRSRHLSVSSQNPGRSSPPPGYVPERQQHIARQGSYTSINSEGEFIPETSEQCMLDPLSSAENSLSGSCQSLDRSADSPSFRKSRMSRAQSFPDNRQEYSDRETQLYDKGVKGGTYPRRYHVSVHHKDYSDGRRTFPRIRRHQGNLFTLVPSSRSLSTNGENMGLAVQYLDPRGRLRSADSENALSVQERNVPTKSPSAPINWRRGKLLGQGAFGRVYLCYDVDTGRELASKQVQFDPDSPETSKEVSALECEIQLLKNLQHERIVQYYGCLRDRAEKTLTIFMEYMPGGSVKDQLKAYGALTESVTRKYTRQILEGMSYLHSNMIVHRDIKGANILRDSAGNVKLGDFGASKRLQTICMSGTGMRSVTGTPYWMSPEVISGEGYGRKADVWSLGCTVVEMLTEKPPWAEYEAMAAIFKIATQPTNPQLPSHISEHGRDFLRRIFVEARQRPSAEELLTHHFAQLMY

[4] = target: T3, Serine/threonine-protein kinase D3 (Homo sapiens) (UniProt O94806); assay: Selectivity interaction (ActivX KiNativ screen (kinase selectivity in THP-1 cell lysates)) EUB0000639a PRKD3; type: subcellular; settings: lysate, at 0.2 µM
T3 sequence (whole entry): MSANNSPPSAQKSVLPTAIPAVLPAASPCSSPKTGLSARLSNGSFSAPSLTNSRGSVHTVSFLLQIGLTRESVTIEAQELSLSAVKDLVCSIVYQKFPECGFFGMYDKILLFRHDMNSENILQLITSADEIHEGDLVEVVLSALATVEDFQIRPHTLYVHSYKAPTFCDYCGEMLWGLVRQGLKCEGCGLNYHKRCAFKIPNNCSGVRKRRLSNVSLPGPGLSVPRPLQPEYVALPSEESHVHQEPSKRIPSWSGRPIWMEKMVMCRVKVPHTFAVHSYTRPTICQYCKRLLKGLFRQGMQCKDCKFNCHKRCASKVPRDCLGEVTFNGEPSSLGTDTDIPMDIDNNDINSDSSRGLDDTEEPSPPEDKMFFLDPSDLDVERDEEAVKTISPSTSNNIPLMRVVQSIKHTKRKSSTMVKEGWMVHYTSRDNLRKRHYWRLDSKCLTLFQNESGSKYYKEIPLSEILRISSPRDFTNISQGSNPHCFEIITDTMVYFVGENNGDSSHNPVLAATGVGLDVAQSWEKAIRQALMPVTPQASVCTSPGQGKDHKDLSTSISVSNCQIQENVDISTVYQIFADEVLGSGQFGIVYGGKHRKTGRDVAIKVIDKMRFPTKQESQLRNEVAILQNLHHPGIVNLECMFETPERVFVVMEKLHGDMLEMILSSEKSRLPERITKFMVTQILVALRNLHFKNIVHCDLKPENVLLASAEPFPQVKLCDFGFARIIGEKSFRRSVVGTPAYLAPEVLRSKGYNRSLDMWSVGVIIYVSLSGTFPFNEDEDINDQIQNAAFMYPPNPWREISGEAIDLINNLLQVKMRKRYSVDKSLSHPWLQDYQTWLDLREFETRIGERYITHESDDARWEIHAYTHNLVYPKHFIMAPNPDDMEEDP

Chain of Cyclin-dependent kinase 13 (Q14004 whole entry, looked up): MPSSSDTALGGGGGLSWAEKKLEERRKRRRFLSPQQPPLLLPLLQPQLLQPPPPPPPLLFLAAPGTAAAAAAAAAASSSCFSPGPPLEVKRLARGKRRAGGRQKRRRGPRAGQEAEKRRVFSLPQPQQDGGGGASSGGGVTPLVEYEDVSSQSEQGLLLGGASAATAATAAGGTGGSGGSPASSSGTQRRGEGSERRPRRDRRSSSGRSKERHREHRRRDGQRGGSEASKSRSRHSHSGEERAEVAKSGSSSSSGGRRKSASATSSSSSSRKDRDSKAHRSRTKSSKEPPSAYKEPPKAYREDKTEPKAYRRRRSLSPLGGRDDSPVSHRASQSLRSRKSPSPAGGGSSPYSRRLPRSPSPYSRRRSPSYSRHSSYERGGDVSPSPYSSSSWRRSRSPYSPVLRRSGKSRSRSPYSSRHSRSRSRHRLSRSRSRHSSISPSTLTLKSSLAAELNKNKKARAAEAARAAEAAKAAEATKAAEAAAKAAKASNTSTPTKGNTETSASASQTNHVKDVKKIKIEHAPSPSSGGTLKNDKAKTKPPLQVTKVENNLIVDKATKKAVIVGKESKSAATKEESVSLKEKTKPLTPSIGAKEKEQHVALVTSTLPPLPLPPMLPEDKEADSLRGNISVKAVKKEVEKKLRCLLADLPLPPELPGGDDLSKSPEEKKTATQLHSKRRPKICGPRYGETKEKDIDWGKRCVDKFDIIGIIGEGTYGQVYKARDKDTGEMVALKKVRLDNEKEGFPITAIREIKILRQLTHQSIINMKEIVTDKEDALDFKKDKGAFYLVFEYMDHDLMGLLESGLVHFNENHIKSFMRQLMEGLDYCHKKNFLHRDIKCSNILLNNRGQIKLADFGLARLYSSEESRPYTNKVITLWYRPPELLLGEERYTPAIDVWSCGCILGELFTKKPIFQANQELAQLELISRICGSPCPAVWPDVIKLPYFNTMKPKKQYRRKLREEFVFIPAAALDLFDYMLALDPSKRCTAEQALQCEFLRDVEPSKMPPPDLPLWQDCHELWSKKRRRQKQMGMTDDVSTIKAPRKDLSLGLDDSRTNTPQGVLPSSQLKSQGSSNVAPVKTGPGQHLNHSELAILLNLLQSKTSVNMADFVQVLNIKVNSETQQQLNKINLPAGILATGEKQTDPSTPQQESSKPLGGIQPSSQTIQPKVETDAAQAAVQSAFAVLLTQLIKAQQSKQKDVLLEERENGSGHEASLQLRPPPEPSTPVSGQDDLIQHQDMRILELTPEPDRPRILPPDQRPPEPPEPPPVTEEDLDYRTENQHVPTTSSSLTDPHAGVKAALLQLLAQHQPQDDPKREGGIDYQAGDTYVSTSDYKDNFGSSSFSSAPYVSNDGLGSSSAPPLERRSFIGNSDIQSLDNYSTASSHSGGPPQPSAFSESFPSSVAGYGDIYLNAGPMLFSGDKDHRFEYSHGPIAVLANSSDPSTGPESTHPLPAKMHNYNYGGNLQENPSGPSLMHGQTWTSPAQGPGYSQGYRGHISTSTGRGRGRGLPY

With `COCC(=O)NC/C=C/c1ccc2ncnc(Nc3ccc(Oc4ccc(C)nc4)c(C)c3)c2c1` [CP-724714] the % of control [1] was 100%.
Work on `CNC(=O)Nc1ccc(-c2nc(N3CC4CCC(C3)O4)c3cnn(C4CCC5(CC4)OCCO5)c3n2)cc1` yielded a % of control [2] of 100%.
With `CC[C@@H]1[C@H](F)C(=O)N[C@@H]1COc1nccc2cc(C(N)=O)c(OC)cc12` [ZIMLOVISERTIB] the % of inhibition [3] was -5.54% and the % of inhibition [4] was -4.6%.
